As usually defined, the IC50 is the concentration that gives 50% inhibition. Read a low IC50 as inhibition by little substance.

Like-named read-outs stand apart in the source and are kept apart here.

This is an account of results in patent US7488712B2, “Histone deacetylase inhibitors and methods for producing the same” (Kyushu Institute of Technology, priority 2002, dated 2009).

For one data set, the target named is T1, human HDAC4 (Homo sapiens, UniProt P56524).
T1 construct: FLAG; made in house; host or cells: 293T cells (transient transfection, anti-FLAG immunoprecipitation, FLAG peptide elution)
T1 sequence (O15379 whole entry partner): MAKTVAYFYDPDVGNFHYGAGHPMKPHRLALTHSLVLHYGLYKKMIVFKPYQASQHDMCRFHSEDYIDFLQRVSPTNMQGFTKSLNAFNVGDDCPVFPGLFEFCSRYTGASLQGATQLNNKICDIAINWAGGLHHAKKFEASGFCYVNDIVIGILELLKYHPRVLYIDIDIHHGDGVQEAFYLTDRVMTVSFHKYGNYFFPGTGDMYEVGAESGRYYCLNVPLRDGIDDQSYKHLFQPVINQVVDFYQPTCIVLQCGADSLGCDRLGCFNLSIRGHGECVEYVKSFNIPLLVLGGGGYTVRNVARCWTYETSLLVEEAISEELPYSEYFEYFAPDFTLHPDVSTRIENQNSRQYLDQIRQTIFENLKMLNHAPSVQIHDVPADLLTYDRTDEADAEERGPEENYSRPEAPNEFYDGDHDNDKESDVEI
T1 sequence (P56524 whole entry): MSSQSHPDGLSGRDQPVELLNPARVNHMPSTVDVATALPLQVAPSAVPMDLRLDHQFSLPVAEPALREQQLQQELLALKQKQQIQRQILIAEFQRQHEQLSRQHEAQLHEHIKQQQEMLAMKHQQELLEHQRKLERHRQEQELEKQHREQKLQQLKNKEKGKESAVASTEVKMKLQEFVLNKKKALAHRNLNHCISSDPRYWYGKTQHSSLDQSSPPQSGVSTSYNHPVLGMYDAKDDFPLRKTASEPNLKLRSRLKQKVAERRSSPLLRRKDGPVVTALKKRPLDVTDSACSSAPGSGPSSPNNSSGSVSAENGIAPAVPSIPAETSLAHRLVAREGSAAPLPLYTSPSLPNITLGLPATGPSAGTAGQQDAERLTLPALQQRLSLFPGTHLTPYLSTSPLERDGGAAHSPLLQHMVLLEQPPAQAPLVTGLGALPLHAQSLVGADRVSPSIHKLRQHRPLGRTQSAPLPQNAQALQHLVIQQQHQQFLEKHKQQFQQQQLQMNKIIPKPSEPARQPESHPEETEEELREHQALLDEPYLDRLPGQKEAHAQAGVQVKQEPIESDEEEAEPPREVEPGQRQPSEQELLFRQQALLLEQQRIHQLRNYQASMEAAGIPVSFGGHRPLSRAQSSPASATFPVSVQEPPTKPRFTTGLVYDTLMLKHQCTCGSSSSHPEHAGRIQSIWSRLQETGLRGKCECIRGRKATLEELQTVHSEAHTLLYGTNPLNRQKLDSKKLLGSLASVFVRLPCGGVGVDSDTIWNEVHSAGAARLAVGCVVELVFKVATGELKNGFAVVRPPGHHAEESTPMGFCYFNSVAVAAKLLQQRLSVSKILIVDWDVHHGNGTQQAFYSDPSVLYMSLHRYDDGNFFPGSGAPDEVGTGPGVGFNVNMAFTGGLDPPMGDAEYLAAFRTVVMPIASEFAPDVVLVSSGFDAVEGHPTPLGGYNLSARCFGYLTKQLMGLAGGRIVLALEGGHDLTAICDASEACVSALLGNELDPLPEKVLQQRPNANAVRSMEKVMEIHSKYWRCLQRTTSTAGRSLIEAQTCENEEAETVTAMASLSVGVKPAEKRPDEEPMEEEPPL
In words: In vitro HDAC inhibition activity, [3H]-acetylated histone substrate, HDAC4. It counts as biochemical. As to conditions: Table 3.

The next data set concerns the target T2, mouse HDAC6 (Mus musculus, UniProt Q9Z2V5).
T2 construct: HA; made in house; host or cells: 293T cells (transient transfection, anti-HA immunoprecipitation, HA peptide elution)
T2 sequence (Q9Z2V5 1-1149): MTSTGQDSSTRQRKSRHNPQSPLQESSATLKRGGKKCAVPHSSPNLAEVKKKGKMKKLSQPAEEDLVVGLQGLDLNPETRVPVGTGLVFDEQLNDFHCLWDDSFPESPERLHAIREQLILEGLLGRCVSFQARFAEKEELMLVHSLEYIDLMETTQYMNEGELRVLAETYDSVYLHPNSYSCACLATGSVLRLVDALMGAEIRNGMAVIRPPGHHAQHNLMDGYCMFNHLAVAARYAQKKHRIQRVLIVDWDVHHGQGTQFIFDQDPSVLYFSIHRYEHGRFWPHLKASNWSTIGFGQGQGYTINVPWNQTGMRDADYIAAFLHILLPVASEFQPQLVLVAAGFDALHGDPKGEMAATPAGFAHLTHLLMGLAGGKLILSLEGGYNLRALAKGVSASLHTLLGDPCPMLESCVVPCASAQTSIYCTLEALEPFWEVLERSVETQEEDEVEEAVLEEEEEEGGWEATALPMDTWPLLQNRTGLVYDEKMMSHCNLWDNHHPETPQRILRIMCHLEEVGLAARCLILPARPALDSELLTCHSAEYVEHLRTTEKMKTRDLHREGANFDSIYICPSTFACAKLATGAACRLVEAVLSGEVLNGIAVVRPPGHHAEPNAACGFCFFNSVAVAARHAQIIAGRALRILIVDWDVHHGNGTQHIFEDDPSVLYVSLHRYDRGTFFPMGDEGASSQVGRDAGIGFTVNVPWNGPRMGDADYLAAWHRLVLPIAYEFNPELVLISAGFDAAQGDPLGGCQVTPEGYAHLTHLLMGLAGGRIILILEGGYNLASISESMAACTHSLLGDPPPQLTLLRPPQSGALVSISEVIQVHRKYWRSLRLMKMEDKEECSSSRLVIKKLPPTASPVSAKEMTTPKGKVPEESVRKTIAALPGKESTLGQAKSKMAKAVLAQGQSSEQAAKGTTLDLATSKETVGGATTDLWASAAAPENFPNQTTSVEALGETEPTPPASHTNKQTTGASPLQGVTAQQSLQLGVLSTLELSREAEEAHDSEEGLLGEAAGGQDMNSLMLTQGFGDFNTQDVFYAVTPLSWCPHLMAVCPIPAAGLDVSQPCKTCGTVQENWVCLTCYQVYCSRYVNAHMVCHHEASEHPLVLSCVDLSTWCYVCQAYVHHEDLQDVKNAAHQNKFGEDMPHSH
The data set can be described thus: In vitro HDAC inhibition activity, [3H]-acetylated histone substrate, HDAC6. It counts as biochemical. As to conditions: Table 3.

Data set [1] is described as follows: Cytotoxicity test (free-LDH ratio), TIG-3. Format: cell-based. As to conditions: human, TIG-3 human normal lung cells, 48 hours, free-LDH ratio 50%, read-out: LD50 (nM) TIG-3. As to the method:
This was then cultured for 18 hours.

With `CC[C@H](C)[C@@H]1NC(=O)[C@@H](Cc2ccc(OC)cc2)NC(=O)[C@H](CCCCCSSc2ccncc2)NC(=O)[C@H]2CCCN2C1=O` [SCOP 402, cyclo(-L-Am7(S4Py)-D-Tyr(Me)-L-Ile-D-Pro-)], the IC50 at human HDAC4 (hybrid with DTT (/DTT)) was 1.12 nM; on human HDAC4 (hybrid, without DTT), 68.3 nM; at mouse HDAC6 (hybrid with DTT (/DTT)), 2010 nM; at mouse HDAC6 (hybrid, without DTT) it was 1610 nM. For the same compound, the CC50 at 48 h in data set [1] (with DTT (/DTT)) stood at 4460 nM; in data set [1] (without DTT) it was 13300 nM.
